Results taken from paper PMC6576746, “Rational discovery of dual-indication multi-target PDE/Kinase inhibitor for precision anti-cancer therapy using structural systems pharmacology” (PLoS Computational Biology, 2019).

Legend:
Assay in all cases: cells
Parameters in all cases: species or system panel of human cancer cell lines; Eurofins OncoPanel proliferation; nuclei count by high-content fluorescence imaging, 10-point dose response
[1] = tested on: ARH-77; conditions: Homo sapiens, ARH-77, 72 h, cell count, 3 days
How it was run: (§1)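 Cells in RPMI 1640/10% FBS or special medium received compound the day after seeding, with a time-zero plate; 3-day incubation at 37°C, 5% CO2. Nuclei imaged by fluorescence microscopy; 10 half-log doses from 100 μM, 0.1% DMSO. EC50, IC50, GI50 and activity area (0–10) from curve fits.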

[2] = tested on: Hs 578T; conditions: Homo sapiens, Hs-578T, 72 h, cell count, 3 days
How it was run: as §1

[3] = tested on: Ramos (RA 1); conditions: Homo sapiens, Ramos, 72 h, cell count, 3 days
How it was run: as §1

[4] = tested on: RKOE6; conditions: Homo sapiens, RKOE6, 72 h, cell count, 3 days
How it was run: as §1

[5] = tested on: SW900; conditions: Homo sapiens, SW900, 72 h, cell count, 3 days
How it was run: as §1

[6] = tested on: C-33A; conditions: Homo sapiens, C-33-A, 72 h, cell count, 3 days
How it was run: as §1

[7] = tested on: 647-V; conditions: Homo sapiens, 647-V, 72 h, cell count, 3 days
How it was run: as §1

[8] = tested on: HCT-15; conditions: Homo sapiens, HCT-15, 72 h, cell count, 3 days
How it was run: as §1

[9] = tested on: A-673; conditions: Homo sapiens, A673, 72 h, cell count, 3 days
How it was run: as §1

[10] = tested on: JeKo-1; conditions: Homo sapiens, JeKo-1, 72 h, cell count, 3 days
How it was run: as §1

[11] = tested on: CCF-STTG1; conditions: Homo sapiens, CCF-STTG1, 72 h, cell count, 3 days
How it was run: as §1

[12] = tested on: Hs 888.Sk; conditions: 72 h, cell count, 3 days
How it was run: as §1

[13] = tested on: MX-1; conditions: Homo sapiens, MX1, 72 h, cell count, 3 days
How it was run: as §1

[14] = tested on: PSN-1; conditions: Homo sapiens, PSN1, 72 h, cell count, 3 days
How it was run: as §1

[15] = 50% of maximum possible response

C[C@@H]1CC(=O)NN=C1c1ccc(NN=C(C#N)C#N)cc1 [levosimendan]
IC50 [1, 15]: 20.3 µM | GI50 ([1]; corrected for time zero): 16 µM | EC50 ([1]; curve inflection point): 19.3 µM | IC50 [2, 15]: > 100 µM | GI50 ([2]; corrected for time zero): > 100 µM | EC50 ([2]; curve inflection point): 48 µM | IC50 [3, 15]: 24.1 µM | GI50 ([3]; corrected for time zero): 21.2 µM | EC50 ([3]; curve inflection point): 24.1 µM | IC50 [4, 15]: 7.12 µM | GI50 ([4]; corrected for time zero): 6.28 µM | EC50 ([4]; curve inflection point): 6.96 µM | IC50 [5, 15]: 67.6 µM | GI50 ([5]; corrected for time zero): 35.9 µM | EC50 ([5]; curve inflection point): 67.6 µM | IC50 [6, 15]: 14.5 µM | GI50 ([6]; corrected for time zero): 10.7 µM | EC50 ([6]; curve inflection point): 14.5 µM | IC50 [7, 15]: 13.7 µM | GI50 ([7]; corrected for time zero): 8.64 µM | EC50 ([7]; curve inflection point): 13.7 µM | IC50 [8, 15]: 32.1 µM | GI50 ([8]; corrected for time zero): 31 µM | EC50 ([8]; curve inflection point): 30.8 µM | IC50 [9, 15]: 57.6 µM | GI50 ([9]; corrected for time zero): 44 µM | EC50 ([9]; curve inflection point): 57.6 µM | IC50 [10, 15]: 24.7 µM | GI50 ([10]; corrected for time zero): 20.9 µM | EC50 ([10]; curve inflection point): 24.6 µM | IC50 [11, 15]: > 100 µM | GI50 ([11]; corrected for time zero): > 100 µM | EC50 ([11]; curve inflection point): > 100 µM | IC50 [12, 15]: > 100 µM | GI50 ([12]; corrected for time zero): 47.6 µM | EC50 ([12]; curve inflection point): > 100 µM | IC50 [13, 15]: 40.4 µM | GI50 ([13]; corrected for time zero): 37 µM | EC50 ([13]; curve inflection point): 40.4 µM | IC50 [14, 15]: 12.8 µM | GI50 ([14]; corrected for time zero): 11.6 µM | EC50 ([14]; curve inflection point): 11.8 µM
